# Data taken from patent publication US9951065B2 (Gilead Sciences, Inc., priority 2015, dated 2018).
# Target: T1, IDO1 (Homo sapiens, UniProt P14902)
# T1 construct: HeLa cells were treated with a test compound in the presence of IFNγ, which induces IDO1 expression; host or cells: H1-HeLa cells, IDO1 induced with IFNγ
# Test: Cell-based (HeLa) assay for measurement of IDO1 inhibition (kynurenine levels in supernatant after IFNγ induction)
# Conditions: HeLa cells, IFNγ-induced IDO1, kynurenine in supernatant after 48 hour incubation; geometric mean of a minimum of four determinations
# Procedure, shortened: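 IDO1 activity is read as kynurenine released into the medium, detected with Ehrlich's reagent (p-dimethylaminobenzaldehyde) at 480 nm after TCA treatment. HeLa cells were exposed 48 h to compounds in 0.5% DMSO alongside IFNγ induction. Values normalized to no-IFNγ and IFNγ controls; four-parameter EC50 given as geometric mean of ≥4 determinations.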
# T1 sequence (P14902 whole entry): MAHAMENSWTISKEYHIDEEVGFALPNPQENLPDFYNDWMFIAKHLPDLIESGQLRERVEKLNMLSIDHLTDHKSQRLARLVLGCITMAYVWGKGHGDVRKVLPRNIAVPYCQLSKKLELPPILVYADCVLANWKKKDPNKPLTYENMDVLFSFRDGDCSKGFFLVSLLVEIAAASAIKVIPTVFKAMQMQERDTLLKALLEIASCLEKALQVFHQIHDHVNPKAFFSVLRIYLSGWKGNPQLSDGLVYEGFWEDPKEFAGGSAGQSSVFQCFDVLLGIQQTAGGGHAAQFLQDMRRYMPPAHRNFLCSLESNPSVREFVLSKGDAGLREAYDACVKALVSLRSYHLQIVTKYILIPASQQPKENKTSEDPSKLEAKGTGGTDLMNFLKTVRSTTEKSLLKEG
row,EC50 [nM],SMILES
1,1510,"CNCCc1nc2nccc(/C(=N/O)Nc3ccc(F)c(Cl)c3)c2[nH]1 [Example 188, N-(3-Chloro-4-fluorophenyl)-N′-hydroxy-2-(2-(methylamino)ethyl)-1H-imidazo[4,5-b]pyridine-7-carboximidamide]"
2,1670,"CCNCc1nc2c(F)ccc(/C(=N/O)Nc3ccc(F)c(Cl)c3)c2[nH]1 [Example 287, N-(3-chloro-4-fluorophenyl)-2-((ethylamino)methyl)-4-fluoro-N′-hydroxy-1H-benzo[d]imidazole-7-carboximidamide]"
3,529,"O/N=C(\Nc1ccc(F)c(Cl)c1)c1ccnc2nc(-c3ncc[nH]3)[nH]c12 [Example 149, N-(3-Chloro-4-fluorophenyl)-N′-hydroxy-2-(1H-imidazol-2-yl)-1H-imidazo[4,5-b]pyridine-7-carboximidamide]"
4,1760,"O/N=C(\Nc1ccc(F)c(Cl)c1)c1ccnc2nc(CNCc3ccccc3)[nH]c12 [Example 115, 2-((Benzylamino)methyl)-N-(3-chloro-4-fluorophenyl)-N′-hydroxy-1H-imidazo[4,5-b]pyridine-7-carboximidamide]"
5,462,"O/N=C(\Nc1ccc(Cl)c(Br)c1)c1ccnc2nc[nH]c12 [Example 85, N-(3-Bromo-4-chlorophenyl)-N′-hydroxy-1H-imidazo[4,5-b]pyridine-7-carboximidamide]"
6,4770,"O=S(=O)(CCNc1nc2nccc(/C(=N/O)Nc3ccc(F)c(Cl)c3)c2[nH]1)N1CCOCC1 [Example 236, N-(3-chloro-4-fluorophenyl)-N′-hydroxy-2-((2-(morpholinosulfonyl)ethyl)amino)-1H-imidazo[4,5-b]pyridine-7-carboximidamide]"
7,2870,"CN1CCCCC(Nc2nc3nccc(/C(=N/O)Nc4ccc(F)c(Cl)c4)c3[nH]2)C1 (stereo not shown) [Example 217, N-(3-chloro-4-fluorophenyl)-N′-hydroxy-2-((1-methylazepan-3-yl)amino)-1H-imidazo[4,5-b]pyridine-7-carboximidamide]"
8,2820,"CC(C)NCCc1nc2nccc(/C(=N/O)Nc3ccc(F)c(Cl)c3)c2[nH]1 [Example 205, N-(3-chloro-4-fluorophenyl)-N′-hydroxy-2-(2-(isopropylamino)ethyl)-3H-imidazo[4,5-b]pyridine-7-carboximidamide]"
9,3620,"CC(C)(C)OC(=O)NCCc1nc2c(F)c(F)cc(/C(=N/O)Nc3ccc(F)c(Cl)c3)c2[nH]1 [Example 213, tert-butyl (2-(7-(N-(3-chloro-4-fluorophenyl)-N′-hydroxycarbamimidoyl)-4,5-difluoro-1H-benzo[d]imidazol-2-yl)ethyl)carbamate]"
10,1670,"OCc1nc2nccc(/C(=N/O)Nc3ccc(F)c(Cl)c3)c2[nH]1 [Example 177, N-(3-Chloro-4-fluorophenyl)-N′-hydroxy-2-(hydroxymethyl)-1H-imidazo[4,5-b]pyridine-7-carboximidamide]"
11,438,"O/N=C(\Nc1ccc(F)c(Cl)c1)c1cc(F)c(F)c2nc[nH]c12 [Example 10, N-(3-chloro-4-fluorophenyl)-4,5-difluoro-N′-hydroxy-1H-benzo[d]imidazole-7-carboximidamide]"
12,3740,"O/N=C(\Nc1ccc(F)c(Cl)c1)c1ccnc2nc(NCCC3CCOCC3)[nH]c12 [Example 224, N-(3-chloro-4-fluorophenyl)-N′-hydroxy-2-((2-(tetrahydro-2H-pyran-4-yl)ethyl)amino)-1H-imidazo[4,5-b]pyridine-7-carboximidamide]"
13,2300,"CC(C)CNCCc1nc2nccc(/C(=N/O)Nc3ccc(F)c(Cl)c3)c2[nH]1 [Example 206, N-(3-chloro-4-fluorophenyl)-N′-hydroxy-2-(2-(isobutylamino)ethyl)-3H-imidazo[4,5-b]pyridine-7-carboximidamide]"
14,4040,"O/N=C(\Nc1ccc(F)c(Cl)c1)c1ccnc2nc(C3CCCN3)[nH]c12 (stereo not shown) [Example 152, N-(3-Chloro-4-fluorophenyl)-N′-hydroxy-2-(pyrrolidin-2-yl)-1H-imidazo[4,5-b]pyridine-7-carboximidamide]"
15,722,"CN(C)CCc1nc2nccc(/C(=N/O)Nc3cccc(Cl)c3)c2[nH]1 [Example 264, N-(3-chlorophenyl)-2-(2-(dimethylamino)ethyl),N′-hydroxy-1H-imidazo[4,5-b]pyridine-7-carboximidamide]"
16,445,"CC#Cc1cc(N/C(=N\O)c2ccnc3nc[nH]c23)ccc1F [Example 84, N-(4-Fluoro-3-(prop-1-yn-1-yl)phenyl)-N′-hydroxy-1H-imidazo[4,5-b]pyridine-7-carboximidamide]"
17,6400,"O/N=C(\Nc1ccc(F)c(Cl)c1)c1ccnc2nc(CNc3ncccn3)[nH]c12 [Example 182, N-(3-Chloro-4-fluorophenyl)-N′-hydroxy-2-((pyrimidin-2-ylamino)methyl)-1H-imidazo[4,5-b]pyridine-7-carboximidamide]"
18,7600,"O/N=C(\Nc1ccc(F)c(Cl)c1)c1cc(Cl)cc2[nH]cnc12 [Example 11, 6-Chloro-N-(3-chloro-4-fluorophenyl)-N′-hydroxy-1H-benzo[d]imidazole-4-carboximidamide]"

# Same assay, conditions: HeLa cells, IFNγ-induced IDO1, kynurenine in supernatant, 48 hour incubation; geometric mean of a minimum of four determinations
row,EC50 [nM],SMILES
1,> 10000,"O/N=C(\Nc1ccc(F)c(Cl)c1)c1cc(F)c(F)c2nc(N[C@@H]3CNC[C@@H]3O)[nH]c12 [Example 468, N-(3-chloro-4-fluorophenyl)-4,5-difluoro-N′-hydroxy-2-(((3R,4S)-4-hydroxypyrrolidin-3-yl)amino)-1H-benzo[d]imidazole-7-carboximidamide]"
2,4000,"O/N=C(\Nc1ccc(F)c(Cl)c1)c1ccc(F)c2nc(NCCN3CCOCC3)[nH]c12 [Example 368, N-(3-chloro-4-fluorophenyl)-4-fluoro-N′-hydroxy-2-((2-morpholinoethyl)amino)-1H-benzo[d]imidazole-7-carboximidamide]"
3,472,"CN(C)C1CCCC1Nc1nc2c(F)c(F)cc(/C(=N/O)Nc3ccc(F)c(Cl)c3)c2[nH]1 (stereo not shown) [Example 461, N-(3-chloro-4-fluorophenyl)-2-((2-(dimethylamino)cyclopentyl)amino)-4,5-difluoro-N′-hydroxy-1H-benzo[d]imidazole-7-carboximidamide]"
4,1390,"NCCNc1nc2c(F)c(F)cc(/C(=N/O)Nc3ccc(F)c(Cl)c3)c2[nH]1 [Example 333, 2-((2-aminoethyl)amino)-N-(3-chloro-4-fluorophenyl)-4,5-difluoro-N′-hydroxy-1H-benzo[d]imidazole-7-carboximidamide]"
5,7110,"CS(=O)(=O)NCCNc1nc2nccc(/C(=N/O)Nc3ccc(F)c(Cl)c3)c2[nH]1 [Example 405, N-(3-chloro-4-fluorophenyl)-N′-hydroxy-2-((2-(methylsulfonamido)ethyl)amino)-1H-imidazo[4,5-b]pyridine-7-carboximidamide]"
6,> 10000,"CC(=O)NCCNc1nc2nccc(/C(=N/O)Nc3ccc(F)c(Cl)c3)c2[nH]1 [Example 404, N-(2-((7-(N-(3-chloro-4-fluorophenyl)-N′-hydroxycarbamimidoyl)-1H-imidazo[4,5-b]pyridin-2-yl)amino)ethyl)acetamide]"
7,566,"CC1CN(C(C)(C)CNc2nc3nccc(/C(=N/O)Nc4ccc(F)c(Cl)c4)c3[nH]2)CC(C)O1 (stereo not shown) [Example 484, N-(3-chloro-4-fluorophenyl)-2-((2-(2,6-dimethylmorpholino)-2-methylpropyl)amino)-N′-hydroxy-1H-imidazo[4,5-b]pyridine-7-carboximidamide]"
8,247,"COCCN1CCC(Nc2nc3c(F)c(F)cc(/C(=N/O)Nc4ccc(F)c(Cl)c4)c3[nH]2)C1 (stereo not shown) [Example 454, N-(3-chloro-4-fluorophenyl)-4,5-difluoro-N′-hydroxy-2-((1-(2-methoxyethyl)pyrrolidin-3-yl)amino)-1H-benzo[d]imidazole-7-carboximidamide]"
9,2120,"O/N=C(\Nc1ccc(F)c(Cl)c1)c1cc(F)c(F)c2nc(NCC3COCCN3)[nH]c12 (stereo not shown) [Example 467, N-(3-chloro-4-fluorophenyl)-4,5-difluoro-N′-hydroxy-2-((morpholin-3-ylmethyl)amino)-1H-benzo[d]imidazole-7-carboximidamide]"
10,284,"CN(C)[C@@H]1CCC[C@H]1Nc1nc2c(F)c(F)cc(/C(=N/O)Nc3ccc(F)c(Cl)c3)c2[nH]1 [Example 486, N-(3-chloro-4-fluorophenyl)-2-(((1R,2R)-2-(dimethylamino)cyclopentyl)amino)-4,5-difluoro-N′-hydroxy-1H-benzo[d]imidazole-7-carboximidamide]"
